In one data set the test system is HL-60 cells. Description: Differentiation of HL-60 cells (NBT reduction), 4 days. In kind it is cell-based, human. As for the experimental part:
Effect of 1,25(OH)2 -16-ene-24-oxo-D3 on the Morphological Differentiation of HL-60 Cells
Tissue culture medium used was RPMI-1640 (Gibco) supplemented with glutamine, antibiotics and 20% fetal bovine serum.
1,25(OH)2 -16-ene-D3 and 1,25(OH)2 -16-ene-24-oxo-D3 were dissolved in sufficient ethanol to yield stock solutions of 1 mM. Reduced lighting was used when working with the compounds and the stock solutions were stored in the dark at -20 C. in an argon atmosphere. The stock solutions were added to flasks, which were supplemented with sufficient ethanol to achieve the final concentration of 0.1%.
A HL-60 tumor cell line was originally derived from a patient with promyelocytic leukemia and was obtained from the American Type Culture Collection (ATCC #CCL240). The cells were maintained in liquid cultures by serial passage twice weekly in the tissue culture medium. For each experimental point, cells were grown in replicate flasks. The cells were seeded at a rate of 10^6 cells per 25 cm^2 flask and grown in the presence of the compounds for a total of 4 days. Ethanol, used as the vehicle, was kept constant in all dilutions in each experiment and had no effect on the cell differentiation at the concentrations used […]. After 4 days of incubation at 37° C., cultures were evaluated for cell differentiation.
Quantitation of differentiated cells was done by the biochemical method of nitroblue tetrazolium reduction (NBT) reduction. A 1 ml aliquot of cell suspension was removed from each flask and centrifuged for 10 minutes, and resuspended in about 200 μl of a work solution. The work solution contained 100 ng of tetradecanoyl phorbol acetate per ml of NBT and was kept in a covered vial on ice. The NBT was prepared fresh on the day of enumeration to 1 mg/ml in growth medium. The cells were incubated in a 37° C. water bath for 30 minutes. An aliquot was placed into a hemocytometer and the total number of blue-black cells per approximately 200 cells was determined. The percentage of differentiated cells was then calculated.
The results are also shown as the concentration of compound which induced differentiation of 50% of the cells (ED50).

In a further data set the test system is hydroxylase enzymes. Description: Metabolism in perfused rat kidneys. In kind it is in vitro ADME. Particulars: rat kidney perfusion. The method, then:
The compounds of formulas I and II were prepared by perfusing 1,25(OH)2 -16-ene-D3 in rat kidneys, extracting the perfusate and isolating the compounds of formulas I and II.
Crystalline 1,25(OH)2 -16-ene-D3 was synthesized as described in U.S. Pat. No. 5,087,619, which is herein incorporated by reference to the extent necessary to enable one of skill in the art to make this invention. Rat kidneys were perfused with the 1,25(OH)2 -16-ene-D3 as described in Am. J. Physiol. 1982, 243 E265-271 and in Biochemistry 1987, 26, 324-331. Cold 1,25(OH)2 -16-ene-D3 (400 nmoles) was introduced into 100 mL of perfusate and the kidney perfusion was continued for 8 hours. Lipid extraction of the final kidney perfusate was performed according to the procedure described in Can. J. Biochem. Physiol. 1959, 37, 911-917. Half of the bulk lipid extract from the final perfusate of about 100 mL was then subjected directly to high pressure liquid chromatography (HPLC) performed with a Waters Model 600 equipped with a Model 990 photo diode array detector (Waters Associates, Milford, MA). HPLC analysis was performed on the lipid extract obtained from 50 mL of perfusate under the following conditions: Zorbax-SIL column (25 cm×4.6 mm); Hexane: 2-propanol (90:10), Flow rate: 2 mL/minutes. A known amount of 25(S),26(OH)2 -D3 was added to the perfusate at the time of lipid extraction to assess extraction of vitamin D metabolites in general. Fractions of each individual metabolite from the first HPLC run was pooled and subjected to a second HPLC run using the same Zorbax-SIL column eluted with methylene chloride:2-propanol […]. Each metablite obtained from the second HPLC run was chromatographed twice using the first HPLC system. At this time, the purity of each metabolite was adequate for its structure identification process. A control perfusion was performed with cold 1,25(OH)2 -D3 in a similar fashion and the lipid extract of the final perfusate was analyzed using the same HPLC systems as above.

For a further data set, the system named is human keratinocytes. Description: Keratinocyte proliferation, assay 2 (KGM without calcium supplementation, 7 days). The format is cell-based. Conditions: assays 1 and 2 not distinguished. The method, then: Quantitation of Morphological Changes During Keratinocyte Proliferation Materials and Methods
Human neonatal foreskins were collected by circumcision and placed into tubes containing Dulbecco's Modified Eagle's Medium (DMEM) with 10% serum. On arrival at the laboratory, they were mechanically trimmed of excess dermis, and treated with a solution of trypsin/EDTA (0.05%/0.02%) at 4° C. overnight. The epidermis was stripped from the dermis, agitated in buffered saline containing soybean trypsin inhibitor to remove basal keratinocytes and the stratum cornea layer was removed. The separated cells were centrifuged, resuspended in the above media, counted, and the cells plated onto plastic culture dishes or plates at a density of 25,000 cells/cm^2 in keratinocyte growth media (KGM®-modified MCDB 153, Clonetics, Inc., Catalog #CC3001) according to protocols developed by Boyce and Ham (In Vitro Models for Cancer Research III, 246-274, 1986) for MCDB 153 media. The cultures were incubated in humidified chambers with 5% CO2 at 37° C. The cultures were refed with fresh media two to three times per week. Prior to reaching confluency the cells were replated (passage one) at 25,000 cells/well on 6-well cluster plates (Costar catalog #3506) in KGM.
1 milligram quantities were received in amber glass vials, and stored at -20° C. Sufficient 100% ethanol was added directly to the vials to obtain a millimolar solution that was subsequently aliquoted into small amber vials, overlayed with argon gas and stored at […] Each stock solution was thawed once, used and discarded. Aliquots from the stock solutions were diluted directly into medium and then serially diluted from micromolar to 10^-12 M concentrations. Dilutions from 10^-8 M to 10^-12 M had ethanol added for a final concentration of 0.1%. Stock solutions were used within one month. Control cultures were treated with 0.1% ethanol.
Approximately 24 hours after passage one, the cells were refed with fresh KGM supplemented to 1.5 mM CaCl2 (assay 1) containing the test compound. In a second assay (assay 2), the cells were grown in KGM without calcium supplementation to stimulate more proliferation and grown for 7 days instead of 5 days. Compounds were typically tested at 4 concentrations in triplicate wells. At the termination of the experiment, prior to the cultures reaching confluency, the cells were enumerated as follows. Dishes were rinsed with phosphate buffered saline, and then incubated with trysin/EDTA solution for 15 minutes. Cells were suspended, an aliquot placed into isotonic buffered saline and counted on an electronic particle counter (Coulter Counter). The counter was periodically calibrated for the correct size of keratinocytes. Each well was counted in triplicate. The number of cells per dish were calculated according to dilution factors used and results shown below in Table 3 are presented as percent inhibition obtained in control cultures.

SMILES strings stand for the structures.

For `C=C1/C(=C\C=C2/CCC[C@]3(C)C([C@H](C)CCC(O)C(C)(C)O)=CC[C@@H]23)C[C@@H](O)C[C@@H]1O` (stereo partly drawn) [1,24,25(OH)3-16-ene-D3, 1,24,25-trihydroxy-16-ene-cholecalciferol], the “differentiation of HL-60 / human promyelocytic cells (in words)” value with HL-60 cells is “stimulate differentiation of HL-60 cells”. Besides, the “resistance to further hydroxylation (in words)” value with hydroxylase enzymes is reported as “resisted further hydroxylation from other hydroxylase enzymes”. Besides, in the data set with human keratinocytes, the “proliferation of human keratinocytes / skin cells (in words)” value is reported as “decrease proliferation of human keratinocytes”.

The record behind these values is patent US5401733A, “Stable and active metabolites of 1,25-dihydroxy-16-ene-cholecalciferol” (Hoffmann-La Roche Inc., priority 1993, dated 1995).
